Assay results as given in patent US10323019B2, “Pyrazolylaminobenzimidazole derivatives as JAK inhibitors” (Eli Lilly and Company, priority 2016, dated 2019).

Tests used:
JAK3 = JAK3 (Homo sapiens (Human), UniProt P52333); assay: JAK LanthaScreen Kinase Assay (TR-FRET), JAK3 in vitro enzyme assay; format: biochemical; conditions: 20.0 μM ATP
Method: (§1) The JAK LanthaScreen™ Kinase Assay (Invitrogen) is used to determine the ability of test compounds to inhibit JAK1, JAK2, and JAK3 kinase activity. These are TR-FRET assay formats that use long-lifetime terbium labeled antibody as the donor species and GFP-STAT1 as the acceptor species. Use the TR-FRET ratio to monitor JAK kinase activity where an increase in phosphorylation of the GFP-STAT1 results in an increase in the TR-FRET ratio. Perform the kinase reaction using a 12.5 μl reaction volume in shallow black 384-well Proxiplate®. Add reagents to obtain final reaction conditions of […], 1.76 mM Triton X-100, ATP (20.0 μM for JAK1 and JAK3 or 5 μM for JAK2) enzyme assays, 10.0 mM MgCl2, 1 mM EGTA and 0.01% Brij-35, […] GFP-STAT1, 14 nM JAK1 enzyme for JAK1, 1.0 nM for JAK2 or 2.5 nM for JAK3 enzyme assays, and 4% DMSO and serial dilutions of test compound (diluted 1:3 from 20,000 to 1 nM). Following ATP/GFP-STAT1 addition, centrifuge the assay plates for 1 minute at 1000 revolutions per minute (RPM). Allow the plates to incubate at RT for 60 minutes and then add 12.5 μl of a stopping buffer containing 20 mM EDTA, 2 nM Terbium-anti-phosphorylated Signal Transducers and Activators of Transcription [phosphorylation Tyrosine 701 amino acid] […] Use ACTIVITYBASE® 4.0 to fit the percent inhibition and ten-point compound concentration data to a four-parameter logistic equation.

JAK1 [1] = molecular target: T1, JAK1 (Homo sapiens (Human), UniProt P23458); assay: JAK LanthaScreen Kinase Assay (TR-FRET), JAK1 in vitro enzyme assay; format: biochemical; conditions: 20.0 μM ATP
Method: as §1

JAK2 = JAK2 (Homo sapiens (Human), UniProt O60674); assay: JAK LanthaScreen Kinase Assay (TR-FRET), JAK2 in vitro enzyme assay; format: biochemical; conditions: 5 μM ATP
Method: as §1

JAK1 [2] = molecular target: T1, JAK1; assay: AlphaScreen SureFire p-STAT3-(p-Tyr705)-IL6-TF-1-JAK1 cell-based assay; conditions: TF-1 cells, IL6 30 ng/mL, pSTAT3
Method: AlphaScreen SureFire Protocol p-STAT3-(p-Tyr705)-IL6-TF-1-JAK1 Cell-Based Assay
The JAK1 cell based assay described below is used to determine the JAK1 cellular potency of test compounds.
Cell preparation: Starve TF-1 cells in DMEM medium with 0.5% […] and 1× Pen/Strep at 37° C. Plate 100K cells per well in BD 96 well black plates with clear bottoms. Maintain the plates at RT for 30-60 minutes before incubating overnight at 37° C., and 5% CO2. Count cells using Vi-Cell counter, using a cell suspension at […] and plated 100 μL/well in […] Biocoat plates (Catalog #354640).
Test compound preparation and treatment: Prepare compounds at 1:3 serial dilutions in DMSO and further dilute into the medium. Test compounds in a range of 10 point concentrations from 20,000 to 1 nM. Add diluted compound to corresponding cell plates. Incubate the plates at 37° C. for 20 min. Add IL6 solution at the final concentration 30 ng/mL to corresponding cell plates and continue to incubate at 37° C. for 30 min. Remove media and add 50 μL 1× lysis buffer to each well.
pSTAT3 detection: Perform the following steps sequentially: make acceptor mix (activation buffer/reaction buffer/acceptor beads); transfer 4 μL lysate from 96 well plates to 384 well-Proxiplates; add 5 μL acceptor mix to 384 proxiplate plate(s) and seal plates with aluminum seal; shake 1-2 minutes on plate shaker; incubate plate at RT for 2 hr with gentle shaking; make donor mix (donor beads in dilution buffer); add 2 μL donor mix to assay plates; seal plates with aluminum seal; shake 1-2 minutes on plate shaker; incubate at RT for 2 hr with gentle shaking; read plate with Envision; protocol AlphaScreen Surefire 384.

T1 sequence (P23458 whole entry): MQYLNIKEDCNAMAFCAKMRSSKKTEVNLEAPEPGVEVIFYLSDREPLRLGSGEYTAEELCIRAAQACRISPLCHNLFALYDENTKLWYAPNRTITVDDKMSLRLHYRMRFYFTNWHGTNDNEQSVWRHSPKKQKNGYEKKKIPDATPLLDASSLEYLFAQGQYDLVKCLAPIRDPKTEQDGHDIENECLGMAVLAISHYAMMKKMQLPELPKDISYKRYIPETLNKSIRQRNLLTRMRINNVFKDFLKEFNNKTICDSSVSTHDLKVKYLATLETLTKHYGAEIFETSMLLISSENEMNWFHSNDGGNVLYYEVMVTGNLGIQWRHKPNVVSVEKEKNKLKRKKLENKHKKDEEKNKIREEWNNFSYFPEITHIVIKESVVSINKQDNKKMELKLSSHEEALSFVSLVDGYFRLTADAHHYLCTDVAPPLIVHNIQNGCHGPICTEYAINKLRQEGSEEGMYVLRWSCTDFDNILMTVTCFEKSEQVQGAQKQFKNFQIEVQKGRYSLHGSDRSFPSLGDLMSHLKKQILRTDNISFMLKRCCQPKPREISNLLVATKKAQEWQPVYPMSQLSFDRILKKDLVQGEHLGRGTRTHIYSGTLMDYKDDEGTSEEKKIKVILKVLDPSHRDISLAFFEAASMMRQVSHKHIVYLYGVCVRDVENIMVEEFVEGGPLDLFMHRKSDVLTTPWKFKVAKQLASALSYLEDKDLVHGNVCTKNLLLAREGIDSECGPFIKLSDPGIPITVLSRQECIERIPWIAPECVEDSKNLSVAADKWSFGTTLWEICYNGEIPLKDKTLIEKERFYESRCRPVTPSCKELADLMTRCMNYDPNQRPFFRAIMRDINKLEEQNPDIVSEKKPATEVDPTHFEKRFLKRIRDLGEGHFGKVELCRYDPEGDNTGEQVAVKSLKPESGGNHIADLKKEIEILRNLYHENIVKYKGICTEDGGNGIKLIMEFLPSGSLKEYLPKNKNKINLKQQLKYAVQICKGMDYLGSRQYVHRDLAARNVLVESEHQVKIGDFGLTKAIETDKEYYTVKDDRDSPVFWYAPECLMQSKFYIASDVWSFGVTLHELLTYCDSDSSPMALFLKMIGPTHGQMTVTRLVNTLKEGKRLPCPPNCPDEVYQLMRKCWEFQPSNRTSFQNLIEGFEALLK
Chain of JAK3 (P52333 whole entry): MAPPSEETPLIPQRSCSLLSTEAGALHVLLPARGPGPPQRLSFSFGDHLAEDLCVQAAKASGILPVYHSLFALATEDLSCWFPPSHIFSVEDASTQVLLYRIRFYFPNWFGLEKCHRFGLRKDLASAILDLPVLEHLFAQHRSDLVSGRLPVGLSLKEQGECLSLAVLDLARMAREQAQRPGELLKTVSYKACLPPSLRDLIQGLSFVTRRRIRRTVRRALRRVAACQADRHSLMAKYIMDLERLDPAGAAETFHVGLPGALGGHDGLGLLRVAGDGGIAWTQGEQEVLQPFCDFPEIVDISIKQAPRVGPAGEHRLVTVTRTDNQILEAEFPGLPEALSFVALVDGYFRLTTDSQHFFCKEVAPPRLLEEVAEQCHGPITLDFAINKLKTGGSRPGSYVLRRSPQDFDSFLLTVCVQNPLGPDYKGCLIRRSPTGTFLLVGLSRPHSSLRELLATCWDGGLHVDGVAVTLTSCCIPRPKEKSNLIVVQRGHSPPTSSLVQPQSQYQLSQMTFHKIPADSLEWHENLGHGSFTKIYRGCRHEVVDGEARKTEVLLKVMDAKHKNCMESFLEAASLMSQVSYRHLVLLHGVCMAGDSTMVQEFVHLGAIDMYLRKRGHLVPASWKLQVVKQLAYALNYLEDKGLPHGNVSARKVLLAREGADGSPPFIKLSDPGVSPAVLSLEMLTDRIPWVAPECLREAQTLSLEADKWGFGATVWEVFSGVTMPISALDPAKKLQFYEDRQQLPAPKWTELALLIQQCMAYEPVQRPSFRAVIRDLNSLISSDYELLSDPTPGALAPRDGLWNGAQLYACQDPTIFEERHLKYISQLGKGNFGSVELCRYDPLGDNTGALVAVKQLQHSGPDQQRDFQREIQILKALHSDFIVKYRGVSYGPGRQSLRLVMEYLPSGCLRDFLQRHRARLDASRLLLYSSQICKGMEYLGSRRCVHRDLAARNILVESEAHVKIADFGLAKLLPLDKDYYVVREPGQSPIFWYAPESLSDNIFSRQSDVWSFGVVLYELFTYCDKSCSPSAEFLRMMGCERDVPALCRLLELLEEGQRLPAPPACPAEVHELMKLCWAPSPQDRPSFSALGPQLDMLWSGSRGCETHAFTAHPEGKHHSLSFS
Chain of JAK2 (O60674 whole entry): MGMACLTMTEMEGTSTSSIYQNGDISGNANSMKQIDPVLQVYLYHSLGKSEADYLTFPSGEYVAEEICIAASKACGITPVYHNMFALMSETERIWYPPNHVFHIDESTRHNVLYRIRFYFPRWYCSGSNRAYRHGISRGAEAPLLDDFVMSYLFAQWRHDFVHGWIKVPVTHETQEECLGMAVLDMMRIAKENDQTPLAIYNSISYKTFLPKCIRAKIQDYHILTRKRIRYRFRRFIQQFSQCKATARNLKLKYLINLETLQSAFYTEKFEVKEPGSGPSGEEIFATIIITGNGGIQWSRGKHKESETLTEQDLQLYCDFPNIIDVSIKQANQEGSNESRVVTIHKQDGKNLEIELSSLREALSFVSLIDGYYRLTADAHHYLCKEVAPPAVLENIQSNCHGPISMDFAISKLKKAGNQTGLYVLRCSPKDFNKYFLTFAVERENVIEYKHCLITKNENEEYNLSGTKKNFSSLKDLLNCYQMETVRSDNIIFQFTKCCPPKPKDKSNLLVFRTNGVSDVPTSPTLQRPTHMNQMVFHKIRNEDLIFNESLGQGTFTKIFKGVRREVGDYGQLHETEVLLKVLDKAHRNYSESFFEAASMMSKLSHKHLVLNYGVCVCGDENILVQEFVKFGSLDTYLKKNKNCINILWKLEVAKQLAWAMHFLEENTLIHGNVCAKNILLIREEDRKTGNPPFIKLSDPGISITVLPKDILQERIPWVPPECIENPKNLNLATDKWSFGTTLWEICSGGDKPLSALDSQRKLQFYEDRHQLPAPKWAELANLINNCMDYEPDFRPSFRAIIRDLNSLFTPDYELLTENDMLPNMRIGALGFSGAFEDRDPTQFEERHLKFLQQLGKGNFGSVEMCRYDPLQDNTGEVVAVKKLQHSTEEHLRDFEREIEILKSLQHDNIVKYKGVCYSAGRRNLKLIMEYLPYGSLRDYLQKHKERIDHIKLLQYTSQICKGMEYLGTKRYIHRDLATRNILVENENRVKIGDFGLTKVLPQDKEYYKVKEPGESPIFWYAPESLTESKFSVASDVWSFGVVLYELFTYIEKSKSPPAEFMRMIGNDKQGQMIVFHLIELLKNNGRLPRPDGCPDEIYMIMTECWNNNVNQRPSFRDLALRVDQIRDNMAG

Row | Compound | IC50 (JAK3) [nM] | IC50 (JAK1 [1]) [nM] | IC50 (JAK2) [nM] | IC50 (JAK1 [2]) [nM]
1 | COCCCn1nc(Nc2cc(O[C@H]3CC[C@@H](NC[C@@H](O)C(F)(F)F)CC3)cc3c2ncn3C)cc1C [Example 1, (2R)-1,1,1-Trifluoro-3-({cis-4-[(4-{[1-(3-methoxypropyl)-5-methyl-1H-pyrazol-3-yl]amino}-1-methyl-1H-benzimidazol-6-yl)oxy]cyclohexyl}amino)propan-2-ol] | 3720 ± 1300 | 3.25 ± 0.99 | 1200 ± 550 | 0.154 ± 0.023
2 | COCCn1nc(Nc2cc(O[C@H]3CC[C@@H](NC[C@@H](O)C(F)(F)F)CC3)cc3c2ncn3C)cc1C [Example 2, (2R)-1,1,1-Trifluoro-3-({cis-4-[(4-{[1-(2-methoxyethyl)-5-methyl-1H-pyrazol-3-yl]amino}-1-methyl-1H-benzimidazol-6-yl)oxy]cyclohexyl}amino)propan-2-ol] |  |  |  | 0.275 ± 0.102
